Test results reported in patent publication US10130634B2, “Therapeutic agent for ophthalmic disease” (MITSUBISHI TANABE PHARMA CORPORATION, priority 2013, dated 2018).

Test system: choroidal neovascularization (CNV)
Experiment: laser irradiation-induced choroidal neovascularization mouse model (CNV model)
Type: in vivo, male C57BL/6J mouse
Conditions: oral 20 mg/kg, once on laser-induction day then twice per day; compared to vehicle (0.5% hydroxypropylmethylcellulose) oral group; t-test p<0.05; FIG. 1
Experimental: As a result, VEGF is produced, and a new blood vessel is developed. Therefore, the CNV model is an experimental model showing the efficacy on a disease associated with ocular angiogenesis via VEGF.
Using (2S)-[4-(carboxymethyl)thiazol-2-ylthio]-N-{[4-(3,4-dichlorobenzyl)morpholin-2-yl]methyl}acetamide hydrobromide as a test compound, the following experiment was performed.
Laser was irradiated (6 spot irradiation) on one eye of male C57BL/6J mouse (7-week-old) to experimentally induce CNV.
The mouse was intramuscularly administered (1 mL/kg) with a ketamine hydrochloride/xylazine hydrochloride (1:1, v/v) mixed solution into the thigh and, after systemic anesthesia, mydriasis was induced with mydriatic eye drops, and laser irradiation (wavelength 532 nm, spot size 50 μm, irradiation time 0.1 second, laser output 120 mW) was performed at 6 points while avoiding thick capillary in the retina. […]
At 7 days from the laser irradiation, under systemic anesthesia by intramuscular administration (1 mL/kg) of a ketamine hydrochloride/xylazine hydrochloride (1:1, v/v) mixed solution into the thigh, a 4% FITC-dextran solution was administered at 0.5 mL/animal from the tail vein. […] Using a confocal microscope (OLYMPUS FV-1000D; magnification: ×20, number of pixels: 512 pixel×512 pixel), CNV site in a flat mount specimen was photographed, and measured using an image analysis software (NIH ImageJ). […]

Compound: Br.O=C(O)Cc1csc(SCC(=O)NC[C@H]2CN(Cc3ccc(Cl)c(Cl)c3)CCO2)n1 [test compound, (2S)-[4-(carboxymethyl)thiazol-2-ylthio]-N-{[4-(3,4-dichlorobenzyl)morpholin-2-yl]methyl}acetamide hydrobromide]
- CNV area after 7 days from laser irradiation (CNV suppressive effect): significant CNV suppressive effect
